Consider eight compounds from patent US12281122B1, “PI3K inhibitors” (Cogent Biosciences, Inc., priority 2023, dated 2025).

The structures appear in SMILES notation.

The test system of test [1] is T47D (PI3Kα-H1047R) cell line. Briefly: HTRF phospho-AKT(S473) cell assay in T47D cells. In kind it is cell-based, human. Put shortly:
(§1)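 T47D: RPMI + 10% FBS + 0.2 units/mL insulin, top 5 μM. SKBR3: McCoy's 5A + 10% FBS, top 10 μM, 70 ng/ml PDGF-BB last 15 min. Both: 12-pt 1:3, 2 h, 37° C, max 0.5% DMSO; HTRF pAKT(S473); IC50.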
For orientation: Time-resolved FRET reads energy transfer from a long-lived donor to a nearby acceptor.

The test system of test [2] is SKBR3 (PI3Kα-Wild Type) cell line. Briefly: HTRF phospho-AKT(S473) cell assay in SKBR3 cells. The test is classed as cell-based, human. Summed up:
as §1

[3] abbreviates: Homo sapiens; HTRF phospho-AKT(S473), T47D (PI3Kα-H1047R) cells, 2 hours compound incubation.
[4] abbreviates: Homo sapiens, SK-BR-3; HTRF phospho-AKT(S473), SKBR3 (PI3Kα-Wild Type) cells, 2 hours compound incubation, PDGF-BB stimulated.
Where [5] appears, read: Homo sapiens; T47D (PI3Kα-H1047R) cells, HTRF phospho-AKT(S473), 2 hours compound incubation.
Where [6] appears, read: Homo sapiens, SK-BR-3; SKBR3 (PI3Kα-Wild Type) cells, HTRF phospho-AKT(S473), 2 hours compound incubation, PDGF-BB stimulated.

By IC50 is commonly meant the concentration at which inhibition is half-maximal. Higher therefore signals weaker potency. In the case of `Cc1cc([C@@H](C)Nc2ccc(Cl)nc2C(=O)NS(C)(=O)=O)c2nc(-c3cccc(Cl)c3Cl)n(C)c(=O)c2c1` [Compound 777, (R)-6-chloro-3-((1-(2-(2,3-dichlorophenyl)-3,6-dimethyl-4-oxo-3,4-dihydroquinazolin-8-yl)ethyl)amino)-N-(methylsulfonyl) picolinamide], the IC50 is 500 to 1000 nM in test [1] (setting [3]) and no less than 5000 nM in test [2] (setting [4]).
For the compound `Cc1cc([C@@H](C)Nc2ccc(Cl)nc2C(=O)NS(C)(=O)=O)c2nc(N3CCC[C@@H](c4ccc(C)nc4)C3)n(C)c(=O)c2c1` (relative stereo) [Compound 238, 6-chloro-3-(((R)-1-(3,6-dimethyl-2-((R*)-3-(6-methylpyridin-3-yl)piperidin-1-yl)-4-oxo-3,4-dihydroquinazolin-8-yl)ethyl)amino)-N-(methylsulfonyl) picolinamide], the IC50 in test [1] (setting [5]) is less than 250 nM; in test [2] (setting [6]), 1000 to 5000 nM.
For `Cc1cc([C@@H](C)Nc2ccc(Cl)nc2C(=O)NS(C)(=O)=O)c2nc(N3C[C@@H]4C[C@H]3CN4c3cnc(C)cn3)n(C)c(=O)c2c1` [Compound 591, 6-chloro-3-(((R)-1-(3,6-dimethyl-2-((1S,4S)-5-(5-methylpyrazin-2-yl)-2,5diazabicyclo [2.2.1]heptan-2-yl)-4-oxo-3,4-dihydroquinazolin-8-yl)ethyl)amino)-N-(methylsulfonyl) picolinamide], the results for the IC50 in test [1] (setting [3]) and in test [2] (setting [4]) were 250 to 500 nM and no less than 5000 nM, respectively.
In the case of `Cc1cc([C@@H](C)Nc2ccc(Cl)nc2C(=O)NS(C)(=O)=O)c2nc([C@@H]3CCCN(c4cccnc4)C3)n(C)c(=O)c2c1` (relative stereo) [Compound 211, 6-chloro-3-(((R)-1-(3,6-dimethyl-4-oxo-2-((R*)-1-(pyridin-3-yl)piperidin-3-yl)-3,4-dihydroquinazolin-8-yl)ethyl)amino)-N-(methylsulfonyl) picolinamide], the IC50 in test [1] (setting [5]) is less than 250 nM; in test [2] (setting [6]), 1000 to 5000 nM.
`Cc1cc([C@@H](C)Nc2ccc(Cl)nc2C(=O)NS(C)(=O)=O)c2nc(N3C[C@@H]4C[C@H]3CN4c3ccn(C)n3)n(C)c(=O)c2c1` [Compound 228, 6-chloro-3-(((R)-1-(3,6-dimethyl-2-((1S,4S)-5-(1-methyl-1H-pyrazol-3-yl)-2,5-diazabicyclo[2.2.1]heptan-2-yl)-4-oxo-3,4-dihydroquinazolin-8-yl)ethyl)amino)-N-(methylsulfonyl) picolinamide]: the IC50 was less than 250 nM in test [1] (setting [5]) and 1000 to 5000 nM in test [2] (setting [6]).
In the case of `COc1cc(C2CCN(c3nc4c([C@@H](C)Nc5ccc(Cl)nc5C(=O)NS(C)(=O)=O)cc(C)cc4c(=O)n3C)CC2)n(C)n1` [Compound 325, (R)-6-chloro-3-((1-(2-(4-(3-methoxy-1-methyl-1H-pyrazol-5-yl)piperidin-1-yl)-3,6-dimethyl-4-oxo-3,4-dihydroquinazolin-8-yl)ethyl)amino)-N-(methylsulfonyl) picolinamide], the IC50 was less than 250 nM in test [1] (setting [5]) and 1000 to 5000 nM in test [2] (setting [6]).
With `Cc1cc([C@@H](C)Nc2ccc(Cl)nc2C(=O)NS(C)(=O)=O)c2nc(N3CC[C@@H](Oc4ccc(F)cn4)C3)n(C)c(=O)c2c1` [Compound 713, 6-chloro-3-(((R)-1-(2-((R)-3-((5-fluoropyridin-2-yl)oxy)pyrrolidin-1-yl)-3,6-dimethyl-4-oxo-3,4-dihydroquinazolin-8-yl)ethyl)amino)-N-(methylsulfonyl) picolinamide], the IC50 was in the range of 250 to 500 nM in test [1] (setting [3]) and 1000 to 5000 nM in test [2] (setting [4]).
Taken in the same sequence, the figures for `Cc1cc([C@@H](C)Nc2ccc(Cl)nc2C(=O)NS(C)(=O)=O)c2nc(N3CCC[C@H](c4cnccn4)C3)n(C)c(=O)c2c1` (relative stereo) [Compound 619, 6-chloro-3-(((R)-1-(3,6-dimethyl-4-oxo-2-((R*)-3-(pyrazin-2-yl)piperidin-1-yl)-3,4-dihydroquinazolin-8-yl)ethyl)amino)-N-(methylsulfonyl) picolinamide] were less than 250 nM and no less than 5000 nM.
